The subject of one assay is ALS-tolerant plants. Kind of assay: Review of the spray test data, ALS-tolerant plants together. The assay is classed as in vivo. Particulars: review of the data of Tables 5 and 6. The text has this:
(§1) Seeds of normal wild variety and ALS-resistant variant of each of Stellaria media, Papaver rhoeas, Matricaria chamomilla and Matricaria inodora were sown in trays of peat-based compost placed in a glasshouse to allow germination. At the cotyledon stage, four evenly sized seedlings were transplanted into each of 9 cm diameter plastic pots containing loam soil mixed with 25% by volume horticultural silver sand and further blended with coarse grit in the ratio 3:1. The resulting potting medium was supplemented with Osmacote slow-release fertilizer (16:8:9+Mg) to provide 1.4 g per 0.35 L pot.
(§2) The formulations of each of Examples C1 to C11 and 1 to 16 were applied to the seedlings by spraying. Three replicate pots were used per treatment. Prior to spraying, the plants were watered overhead. To ensure the foliage was dry, water was not applied on the day of spraying, with the last overhead watering being the day before spraying. The herbicide formulations were made up with mains tap water. The laboratory track sprayer was set up with a Lurmark O1E80 Even spray nozzle to deliver 200±20 L/ha using gear 4 and a pressure of […] (30 psi). The application rates of the active ingredients are set out in Table 5 below.
(§3) Following spraying, the plants were returned to the glasshouse and the sprayed pots were arranged in three randomized blocks. The temperature of the glasshouse ranged from 12.2° C. to 16.1° C. by day and 10.9° C. to 13.3° C. at night. The relative humidity ranged from 75% to 101 %.
(§4) Throughout the experiment, the plants were watered to maintain the soil close to the field capacity. Following herbicide treatment, the plants were watered by sub-irrigation using individual plastic dishes for each pot to avoid any risk of cross contamination.
(§5) The visual percentage of control based on a 0-100 linear scale was assessed 21 days after treatment (DAT). The linear scale ranged from 0 (no effect) to 100 (dead plants).
(§6) In Table 6, ‘Obs’ indicates an observed result and ‘Exp’ indicates the result expected from applying the Colby equation, discussed above.

Assay [1] concerns wild (non-tolerant) plants. Kind of assay: Review of the spray test data, wild plants together. The assay is classed as in vivo. Particulars: review of the data of Tables 5 and 6.
Source text: as §1, §2, §3, §4, §5, §6

In the case of `COc1cc(OC)nc(NC(=O)NS(=O)(=O)N(C)S(C)(=O)=O)n1` [Amidosulfuron], the “damage to / effect on ALS-tolerant plants (in words)” value (shortened to “damage to / effect”) in the assay with ALS-tolerant plants is given as “little or no effect”. In assay [1], the “damage to wild (non-tolerant) plants (in words)” value is reported as “significantly damaging”.
The corresponding values for `COc1cc(OC)nc(NC(=O)NS(=O)(=O)c2c(C(=O)O)c(Cl)nn2C)n1` [Halosulfuron] are “little or no effect” and “significantly damaging”.
For `COc1nc(C)nc(NC(=O)NS(=O)(=O)c2cc(I)ccc2C(=O)O)n1` [Iodosulfuron] the same measures were “little or no effect” and “significantly damaging”.
For `COc1cc(OC)nc(NC(=O)NS(=O)(=O)c2cc(CNS(C)(=O)=O)ccc2C(=O)O)n1` [Mesosulfuron], the “damage to / effect” value in the assay with ALS-tolerant plants is on record as “little or no effect”. For the same compound, the “damage to wild (non-tolerant) plants (in words)” value in assay [1] is reported as “significantly damaging”.
The corresponding values for `COc1nc(C)nc(=NC(=O)NS(=O)(=O)c2ccccc2C(=O)O)[nH]1` [Metsulfuron] are “little or no effect” and “significantly damaging”.
For `COc1cc(OC)nc(NC(=O)NS(=O)(=O)c2ncccc2C(=O)N(C)C)n1` [Nicosulfuron] the same measures were “little or no effect” and “significantly damaging”.
Take `CCS(=O)(=O)c1cccnc1S(=O)(=O)NC(=O)Nc1nc(OC)cc(OC)n1` [Rimsulfuron]: the “damage to / effect” value in the assay with ALS-tolerant plants is on record as “little or no effect”. In addition, the “damage to wild (non-tolerant) plants (in words)” value in assay [1] is given as “significantly damaging”.
The corresponding values for `CCS(=O)(=O)c1nc2ccccn2c1S(=O)(=O)NC(=O)Nc1nc(OC)cc(OC)n1` [Sulfosulfuron] are “little or no effect” and “significantly damaging”.
The corresponding values for `COc1nc(C)nc(NC(=O)NS(=O)(=O)c2ccsc2C(=O)O)n1` [Thifensulfuron] are “little or no effect” and “significantly damaging”.
For `COc1nc(C)nc(N(C)C(=O)NS(=O)(=O)c2ccccc2C(=O)O)n1` [Tribenuron], in the assay on ALS-tolerant plants, the “damage to / effect” value is on record as “little or no effect”. Moreover, the “damage to wild (non-tolerant) plants (in words)” value in assay [1] is reported as “significantly damaging”.
For the compound `CSc1nnc(C(C)(C)C)c(=O)n1N` [metribuzin, 4-amino-6-tert-butyl-4,5-dihydro-3-methylthio-1,2,4-triazin-5-one], the “damage to / effect” value in the assay on ALS-tolerant plants is on record as “caused damage”. For the same compound, the “damage to wild (non-tolerant) plants (in words)” value in assay [1] is “caused damage”.

These data come from patent publication US20180317487A1, “METHOD OF CONTROLLING GROWTH OF ALS-TOLERANT PLANTS” (ROTAM AGROCHEM INTERNATIONAL COMPANY LIMITED, priority 2015, published 2018).
